From patent US6930115B2, “Antitumor effect potentiators” (Mitsubishi Pharma Corporation, priority 2000, dated 2005)

Assays:
[1] = test system: Mouse melanoma B16-F10 cells; assay: Measurement of cell growth activity (MTT), in vitro growth of B16-F10 cells; assay type: cell-based; conditions: for CI (Combination Index): median effect analysis; for average growth suppression rate ± standard error: MTT
Description: Mouse melanoma B16-F10 cells (the aforementioned) were cultured in MEM supplemented with 2 mM L-glutamine, 1 mM MEM non-essential amino acids, 1% MEM vitamins, 1 mM pyruvic acid and 5% FCS, and the cells were scraped off from the culture flask every 3-4 days with a cell scraper (No. 3010, manufactured by Coaster), diluted 10-fold and maintained by subculture. In the experiment examining the effect of the test substance on the cell growth, the B16-F10 cells maintained in vitro by subculture were recovered with a cell scraper, suspended in MEM supplemented with 10% FCS at 2×10^5 cells/mL and added to a 96 well microtest plate (Becton Dickinson) at 1×10^4 cells/50 μL/well. Furthermore, 50 μL of a test substance at a 2-fold concentration of the final concentration was added to the well, and cultured in a CO2 incubator (MCO-175, SANYO Electric Co., Ltd.) at 37° C., 5% CO2 95% air for 72 hr.
After culture, 10 mg/mL of MTT [(3-[4,5-Dimethylthiazol-2-yl]-2,5-diphenyl-tetrazolium bromide)] was added at 10 μL/well, which was followed by culture for 3 hr. Thereafter, 100 μL of 10% SDS (sodium dodecylsulfate)—0.01N HCl was added to dissolve the pigment and absorbance at 570 nm was measured with a multilabel counter (1420 ARVO SX, Pharmacia Biotech Corporation). According to the concentration of the test substance, each well was expressed by absorbance, and average value and standard error. Using the well, to which the medium alone was added, as a control, the growth inhibition rate was calculated according to the following formula. [formula] Analysis method: Based on the dose reaction curves of the inventive compound alone treatment group and cisplatin alone treatment group, the combination index (CI) of the action in concomitant use is calculated by median effect analysis (References and [2]). (Results)

[2] = test system: mouse B16-F10 melanoma cultured cells; assay: Hematogenous pulmonary metastasis after transplantation of mouse B16-F10 melanoma cultured cells into tail vein; assay type: in vivo; conditions: for CI (Combination Index): Median Effect Analysis, CI below 1 = synergistic
Description: • (1) Preparation of mouse B16-F10 melanoma cultured cells (hereinafter simply B16-F10) B16-F10 cells (a permission to use was obtained from US M.D. Anderson Cancer Center, Dr. I. Fidler and provided for use from Japanese Foundation for cancer research·cancer chemotherapy center, Dr. […] For experiment, B16-F10 cells were suspended in MEM at 5×10^5 cells/mL and 0.2 mL thereof was transferred into the tail vein of 8-week-old male C57BL/6 mice (8 per group). […] Alzet, model 1002, flow rate […], for use for 14 days), and the osmotic pump was intraperitoneally transplanted into the mice one day before the transplantation of B16-F10 cells. • (3) As regards cisplatin, a preparation for injection (product name: Randa injection) was diluted with physiological saline and intraperitoneally administered once the day after transplantation of B16-F10 cells. As regards etoposide, a preparation for injection (product name: […] injection) was diluted with physiological saline and repeatedly administered intraperitoneally once a day for 5 days starting from one day after transplantation of B16-F10 cells. Paclitaxel was purchased from Sigma chemicals Co., suspended in 0.5% metolose solution and repeatedly administered intraperitoneally once every other day (3 times/week for 2 weeks) starting from one day after transplantation of B16-F10 cells. […] In addition, the values of combination index (CI) of the action in concomitant use analyzed by Median Effect Analysis (References and [2]) with regard to the combination group of the compound of the present invention and the anticancer agent are summarized in Table 3 and Table 6.

## C[C@@H](N)c1ccc(C(=O)Nc2ccncc2)cc1.Cl [compound of the present invention, (R)-(+)-N-(4-pyridyl)-4-(1-aminoethyl)benzamide HCl]
[1]; compound 0.3 μM + cisplatin 10 μM
  CI (Combination Index): 0.4293
[1]; compound 1 μM + cisplatin 10 μM
  CI (Combination Index): 0.4656
[1]; compound 3 μM + cisplatin 10 μM
  CI (Combination Index): 0.4478
[1]; compound 10 μM + cisplatin 10 μM
  CI (Combination Index): 0.4403
[1]; compound 30 μM + cisplatin 10 μM
  CI (Combination Index): 0.5071
[1]; compound 100 μM + cisplatin 10 μM
  CI (Combination Index): 0.3558
[1]; compound 0.1 (no unit in Table 7; μM in Table 8) alone, 72 hr culture
  average growth suppression rate ± standard error: 4.389 ± 3.094%
[1]; compound 0.3 (no unit in Table 7; μM in Table 8) alone, 72 hr culture
  average growth suppression rate ± standard error: 5.196 ± 0.214%
[1]; compound 0.3 in combination with cisplatin 10 μM, 72 hr, NS (p = 0.1293) vs. cisplatin (10 μM) alone
  average growth suppression rate ± standard error: 17.200 ± 11.245%
[1]; compound 1 (no unit in Table 7; μM in Table 8) alone, 72 hr culture
  average growth suppression rate ± standard error: 7.877 ± 0.727%
[1]; compound 1 in combination with cisplatin 10 μM, 72 hr, NS (P = 0.1236) vs. cisplatin (10 μM) alone
  average growth suppression rate ± standard error: 17.319 ± 4.397%
[1]; compound 3 (no unit in Table 7; μM in Table 8) alone, 72 hr culture
  average growth suppression rate ± standard error: 10.012 ± 1.459%
[1]; compound 3 in combination with cisplatin 10 μM, 72 hr, p = 0.0028 vs. cisplatin (10 μM) alone
  average growth suppression rate ± standard error: 26.406 ± 8.364%
[1]; compound 10 (no unit in Table 7; μM in Table 8) alone, 72 hr culture
  average growth suppression rate ± standard error: 10.700 ± 0.365%
[1]; compound 10 in combination with cisplatin 10 μM, 72 hr, p = 0.0000 vs. cisplatin (10 μM) alone
  average growth suppression rate ± standard error: 43.796 ± 5.446%
[1]; compound 30 (no unit in Table 7; μM in Table 8) alone, 72 hr culture
  average growth suppression rate ± standard error: 22.657 ± 4.784%
[1]; compound 30 in combination with cisplatin 10 μM, 72 hr, p = 0.0000 vs. cisplatin (10 μM) alone
  average growth suppression rate ± standard error: 90.320 ± 2.220%
[1]; compound 100 (no unit in Table 7; μM in Table 8) alone, 72 hr culture
  average growth suppression rate ± standard error: 57.960 ± 8.575%
[1]; compound 100 in combination with cisplatin 10 μM, 72 hr, p = 0.0000 vs. cisplatin (10 μM) alone
  average growth suppression rate ± standard error: 96.180 ± 0.164%
[2]; Table 1, compound 1 mg/kg oral administration once a day for 14 days, alone
  T/C±standard error (average number of pulmonary metastatic colonies of administration group/control group ×100): 77.1 ± 10.0%
[2]; Table 1, compound 1 mg/kg oral once a day for 14 days in combination with cisplatin 5 mg/kg intraperitoneally once
  T/C±standard error (average number of pulmonary metastatic colonies of administration group/control group ×100): 13.4 ± 1.4%
[2]; Table 1, compound 1 mg/kg oral once a day for 14 days in combination with cisplatin 10 mg/kg intraperitoneally once, p < 0.01 vs. cisplatin (10 mg/kg) alone
  T/C±standard error (average number of pulmonary metastatic colonies of administration group/control group ×100): 19.5 ± 3.0%
[2]; Table 1, compound 3 mg/kg oral administration once a day for 14 days, alone
  T/C±standard error (average number of pulmonary metastatic colonies of administration group/control group ×100): 65.2 ± 3.7%
[2]; Table 1, compound 3 mg/kg oral once a day for 14 days in combination with cisplatin 5 mg/kg intraperitoneally once
  T/C±standard error (average number of pulmonary metastatic colonies of administration group/control group ×100): 14.4 ± 2.0%
[2]; Table 1, compound 3 mg/kg oral once a day for 14 days in combination with cisplatin 10 mg/kg intraperitoneally once, p < 0.01 vs. cisplatin (10 mg/kg) alone
  T/C±standard error (average number of pulmonary metastatic colonies of administration group/control group ×100): 16.5 ± 1.4%
[2]; Table 2, compound 0.3 mg/kg by intraperitoneal osmotic pump (14 days), alone
  T/C±standard error (average number of pulmonary metastatic colonies of administration group/control group ×100): 73.4 ± 10.1%
[2]; Table 2, compound 0.3 mg/kg by osmotic pump in combination with cisplatin 10 mg/kg intraperitoneally once
  T/C±standard error (average number of pulmonary metastatic colonies of administration group/control group ×100): 12.1 ± 2.1%
[2]; Table 2, compound 1 mg/kg by intraperitoneal osmotic pump (14 days), alone
  T/C±standard error (average number of pulmonary metastatic colonies of administration group/control group ×100): 69.9 ± 7.7%
[2]; Table 2, compound 1 mg/kg by osmotic pump in combination with cisplatin 10 mg/kg intraperitoneally once
  T/C±standard error (average number of pulmonary metastatic colonies of administration group/control group ×100): 13.0 ± 1.8%
[2]; Table 2, compound 3 mg/kg by intraperitoneal osmotic pump (14 days), alone
  T/C±standard error (average number of pulmonary metastatic colonies of administration group/control group ×100): 63.5 ± 7.7%
[2]; Table 2, compound 3 mg/kg by osmotic pump in combination with cisplatin 10 mg/kg intraperitoneally once, P < 0.05 vs. cisplatin (10 mg/kg) alone
  T/C±standard error (average number of pulmonary metastatic colonies of administration group/control group ×100): 11.1 ± 1.4%
[2]; Table 4, compound 1 mg/kg oral administration once a day for 14 days, alone
  T/C±standard error (average number of pulmonary metastatic colonies of administration group/control group ×100): 83.4 ± 10.8%
[2]; Table 4, compound 1 mg/kg oral in combination with etoposide 5 mg/kg intraperitoneally once a day for 5 days, P < 0.05 vs. etoposide (5 mg/kg) alone
  T/C±standard error (average number of pulmonary metastatic colonies of administration group/control group ×100): 22.0 ± 4.8%
[2]; Table 4, compound 3 mg/kg oral administration once a day for 14 days, alone
  T/C±standard error (average number of pulmonary metastatic colonies of administration group/control group ×100): 70.5 ± 4.0%
[2]; Table 4, compound 3 mg/kg oral in combination with etoposide 5 mg/kg intraperitoneally once a day for 5 days, P < 0.01 vs. etoposide (5 mg/kg) alone
  T/C±standard error (average number of pulmonary metastatic colonies of administration group/control group ×100): 19.2 ± 2.8%
[2]; Table 5, compound 1 mg/kg oral administration once a day for 14 days, alone
  T/C±standard error (average number of pulmonary metastatic colonies of administration group/control group ×100): 69.8 ± 9.0%
[2]; Table 5, compound 1 mg/kg oral in combination with paclitaxel 5 mg/kg intraperitoneally once every other day, P < 0.05 vs. paclitaxel (5 mg/kg) alone
  T/C±standard error (average number of pulmonary metastatic colonies of administration group/control group ×100): 20.6 ± 2.6%
[2]; Table 5, compound 3 mg/kg oral administration once a day for 14 days, alone
  T/C±standard error (average number of pulmonary metastatic colonies of administration group/control group ×100): 59.0 ± 3.3%
[2]; Table 5, compound 3 mg/kg oral in combination with paclitaxel 5 mg/kg intraperitoneally once every other day, P < 0.01 vs. paclitaxel (5 mg/kg) alone
  T/C±standard error (average number of pulmonary metastatic colonies of administration group/control group ×100): 16.3 ± 3.0%
[2]; combination group with cisplatin as compared to the cisplatin alone administration group (p<0.01 or p<0.05, Dunnett's test)
  number of pulmonary metastatic colonies of B16-F10 cells: significantly decreased
[2]; combination group with etoposide as compared to the etoposide alone administration group (p<0.01 or p<0.05 Dunnett's test)
  number of pulmonary metastatic colonies of B16-F10 cells: significantly decreased
[2]; combination group with paclitaxel as compared to the paclitaxel alone administration group (p<0.01 or p<0.05 Dunnett's test)
  number of pulmonary metastatic colonies of B16-F10 cells: significantly decreased
[2]; compound 0.3 mg/kg osmotic pump + cisplatin 10 mg/kg
  CI (Combination Index): 0.19
[2]; compound 1 mg/kg oral + Etoposide (5 mg/kg)
  CI (Combination Index): 0.42
[2]; compound 1 mg/kg oral + Paclitaxel (5 mg/kg)
  CI (Combination Index): 0.63
[2]; compound 1 mg/kg oral administration + cisplatin 10 mg/kg
  CI (Combination Index): 0.12
[2]; compound 1 mg/kg osmotic pump + cisplatin 10 mg/kg
  CI (Combination Index): 0.21
[2]; compound 3 mg/kg oral + Etoposide (5 mg/kg)
  CI (Combination Index): 0.34
[2]; compound 3 mg/kg oral + Paclitaxel (5 mg/kg)
  CI (Combination Index): 0.34
[2]; compound 3 mg/kg oral administration + cisplatin 10 mg/kg
  CI (Combination Index): 0.09
[2]; compound 3 mg/kg osmotic pump + cisplatin 10 mg/kg
  CI (Combination Index): 0.17
[2]; compound and cisplatin used in combination, every dose (Table 3)
  CI value of the action in concomitant use: lower than 1
[2]; compound and etoposide used in combination (Table 6)
  combination index of the action in concomitant use: lower than 1
[2]; compound and paclitaxel used in combination (Table 6)
  combination index of the action in concomitant use: lower than 1
